C[N+](C)(C)CCOP(=O)([O-])OP(=O)([O-])OC[C@H]1O[C@@H](n2ccc(N)nc2=O)[C@H](O)[C@@H]1O.[Na+]
in water
Settings | solubility (mole fraction)
278.15 K | 0.0211
281.15 K | 0.0216
285.15 K | 0.0224
289.15 K | 0.0234
293.15 K | 0.0248
298.15 K | 0.0265

O=c1ccc2ccccc2o1
in water
Settings | solubility (mole fraction)
298.15 K | 0.000235
303.15 K | 0.000319
308.15 K | 0.000388
313.15 K | 0.000439

COc1cc(/C=C/C(=O)CC(=O)/C=C/c2ccc(O)c(OC)c2)ccc1O
in water
Settings | solubility (mole fraction)
298.15 K | 1.5e-07
303.15 K | 1.7e-07
308.15 K | 1.9e-07
313.15 K | 2e-07
318.15 K | 2.2e-07

COc1ccc([C@@H]2CC(=O)c3c(O)cc(O[C@@H]4O[C@H](CO[C@@H]5O[C@@H](C)[C@H](O)[C@@H](O)[C@H]5O)[C@@H](O)[C@H](O)[C@H]4O)cc3O2)cc1O
in n-propanol
Settings | solubility (mole fraction)
293.15 K | 0.000142
298.15 K | 0.000166
303.15 K | 0.00019
308.15 K | 0.000218
313.15 K | 0.000252
318.15 K | 0.000289
323.15 K | 0.000329
328.15 K | 0.000375
333.15 K | 0.000425

CC(C)C[C@H](CN)CC(=O)O
in water
Settings | solubility (mole fraction)
283.15 K | 0.00349
298.15 K | 0.00373
308.15 K | 0.00397
315.65 K | 0.00447
323.15 K | 0.00486
328.15 K | 0.00531
338.15 K | 0.00641

O=C1NC(=O)C(c2ccccc2)(c2ccccc2)N1
solubility (mole fraction)
Settings | 293.15 K | 298.2 K | 303.2 K | 308.2 K | 313.15 K | 313.2 K
in NMP | 0.119 | – | – | – | 0.116 | –
in transcutol | – | 0.00133 | 0.00144 | 0.00151 | – | 0.00166
in water | 9.7e-07 | 1.51e-06 | 1.72e-06 | 1.88e-06 | 1.91e-06 | 2.08e-06

CCC(C)C
Settings | solubility (mole fraction)
in water, 293.2 K | 1.24e-05

O=[N+]([O-])c1ccc(N/N=C/c2ccc[nH]2)cc1
Settings | solubility (mole fraction)
in water, 298.15 K | 1.73e-07

COc1cc(/C=C/C(=O)O)cc(OC)c1O
solubility (mole fraction)
Settings | 298.15 K | 303.15 K | 308.15 K | 313.15 K | 318.15 K
in DMSO | 0.147 | 0.149 | 0.152 | 0.155 | 0.158
in ethylene glycol | 0.00586 | 0.0066 | 0.0075 | 0.00848 | 0.0094

Cc1ccc(-c2ncc(Cl)cc2-c2ccc(S(C)(=O)=O)cc2)cn1
298.2 K
Settings | solubility (mole fraction)
in methanol | 0.0379
in propylene glycol | 0.0605
in water | 1.58e-05

Cc1c(O)c(=O)ccn1C
298.2 K
Settings | solubility (mole fraction)
in NMP | 0.002
in ethanol | 0.0014
in ethylene glycol | 0.00737
in propylene glycol | 0.00563

Settings | solubility (mole fraction)
in PEG-400, 298.2 K | 0.00864

O=c1c(-c2ccc(O)cc2)coc2c([C@@H]3O[C@H](CO)[C@@H](O)[C@H](O)[C@H]3O)c(O)ccc12
in methanol
Settings | solubility (mole fraction)
293.15 K | 0.00714
303.15 K | 0.00787
313.15 K | 0.00858
323.15 K | 0.00932
333.15 K | 0.0102

c1ccc(-c2cnc(-c3ccccc3)o2)cc1
298.15 K
Settings | solubility (mole fraction)
in acetone | 0.29
in ethanol | 0.04
in water | 1.41e-07

C[C@@H](O)[C@H]1C(=O)N2C(C(=O)O)=C(S[C@@H]3CN[C@H](C(=O)N(C)C)C3)[C@H](C)[C@H]12.O.O.O
in water
Settings | solubility (mole fraction)
278.15 K | 0.000408
283.15 K | 0.000445
288.15 K | 0.00051
293.15 K | 0.000556
298.15 K | 0.00066
303.15 K | 0.000782

CSCC[C@H](N)C(=O)O
in water
Settings | solubility (mole fraction)
283.15 K | 0.00531
288.15 K | 0.00555
293.15 K | 0.00625
298.15 K | 0.00681
303.15 K | 0.00724
308.15 K | 0.00787
313.15 K | 0.00837

Cc1ncc(CO)c(CO)c1O.Cl
in water
Settings | solubility (mole fraction)
278.15 K | 0.0102
283.15 K | 0.012
288.15 K | 0.014
293.15 K | 0.0165
298.15 K | 0.0187
303.15 K | 0.0215
308.15 K | 0.0245
313.15 K | 0.0288

O=c1[nH]cc(Br)c(=O)[nH]1
Settings | solubility (mole fraction)
in water, 298.15 K | 0.000272

O=C(O)c1ccc(-n2nc(-c3ccccc3O)nc2-c2ccccc2O)cc1
298.2 K
Settings | solubility (mole fraction)
in acetonitrile | 0.00106
in ethanol | 0.0143
in methanol | 0.0119
in propylene glycol | 0.0195

O=[N+]([O-])c1ccc(N/N=C/c2ccco2)c([N+](=O)[O-])c1
Settings | solubility (mole fraction)
in water, 298.15 K | 1.4e-08

F[P-](F)(F)(F)(F)F.F[P-](F)(F)(F)(F)F.c1cc[n+](CCCCCC[n+]2ccccc2)cc1
solubility (mole fraction)
Settings | 288.15 K | 288.25 K | 293.15 K | 294.85 K | 298.15 K | 299.15 K | 303.15 K | 303.55 K | 308.25 K
in acetone | 0.00399 | – | 0.00402 | – | 0.00409 | – | 0.00431 | – | –
in water | – | 2.7e-05 | – | 4.2e-05 | – | 5.4e-05 | – | 7e-05 | 9e-05

O=c1[nH]cc(I)c(=O)[nH]1
Settings | solubility (mole fraction)
in water, 298.15 K | 0.000373

C1CCCC1
in water
Settings | solubility (mole fraction)
276.5 K | 4.62e-05
282.2 K | 4.29e-05
296.2 K | 4.17e-05

O=[N+]([O-])c1ccc(N/N=C/c2cccs2)cc1
Settings | solubility (mole fraction)
in water, 298.15 K | 1.68e-07

O=C(C(=O)c1ccccc1)c1ccccc1
298.15 K
Settings | solubility (mole fraction)
in 2,2,4-trimethylpentane | 0.00589
in 4-methyl-2-pentanol | 0.0128
in cyclohexane | 0.0107
in dibutyl ether | 0.0335
in isobutanol | 0.00969
in isopentanol | 0.0128
in isopropanol | 0.00831
in methylcyclohexane | 0.0113
in n-butanol | 0.0131
in n-heptane | 0.00656
in n-hexane | 0.00575
in n-octane | 0.00724
in n-octanol | 0.0169
in n-pentanol | 0.015
in n-propanol | 0.0118
in sec-butanol | 0.011

CCc1ccc(CCOc2ccc(CC3SC(=O)NC3=O)cc2)nc1.Cl (stereo unspecified)
in methanol
Settings | solubility (mole fraction)
283.15 K | 0.00517
293.15 K | 0.00754
303.15 K | 0.0102
313.15 K | 0.0149
323.15 K | 0.0223

CC(=O)N1CCN(c2ccc(OC[C@@H]3CO[C@@](Cn4ccnc4)(c4ccc(Cl)cc4Cl)O3)cc2)CC1 (racemic)
solubility (mole fraction)
Settings | in 1,4-dioxane | in NMP | in ethanol | in isopropanol | in propylene glycol | in transcutol
293.2 K | 0.00683 | 0.019 | 0.00275 | 0.000773 | 0.00161 | 0.0116
298.2 K | 0.00833 | 0.023 | 0.00358 | 0.000948 | 0.00219 | 0.0136
303.2 K | 0.00983 | 0.0282 | 0.00434 | 0.00121 | 0.00293 | 0.0159
308.2 K | 0.0121 | 0.0321 | 0.00561 | 0.0018 | 0.00348 | 0.0189
313.2 K | 0.0139 | 0.0376 | 0.00649 | 0.00237 | 0.00507 | 0.0212

NCCC(=O)O
in methanol
Settings | solubility (mole fraction)
288.15 K | 0.115
293.15 K | 0.122
298.15 K | 0.131
303.15 K | 0.14
308.15 K | 0.152
313.15 K | 0.164
318.15 K | 0.173
323.15 K | 0.183

— BigSolDB 2.1
